Results published in patent US9730445B2, “Herbicidal compositions comprising 4-amino-3-chloro-5-fluoro-6-(4-chloro-2-fluoro-3-methoxyphenyl) pyridine-2-carboxylic acid or a derivative thereof and fungicides” (DOW AGROSCIENCES LLC, priority 2013, dated 2017).
Several values for one entry are separate records, joined by “and”; a condition that tells them apart may be missing. Identical values can stand only once.

Test system: BRAPP
Assay: Postemergence foliar-applied weed control, direct-seeded rice (greenhouse)
Assay type: in vivo
Text: Seeds or nutlets of the desired test plant species were planted in a soil matrix prepared by mixing aloam or sandy loam soil (e.g., 28.6 percent silt, 18.8 percent clay, and 52.6 percent sand, with a pH of about 5.8 and an organic matter content of about 1.8 percent) and calcareous grit in an 80 to 20 ratio. The soil matrix was contained in plastic pots with a volume of 1 quart and a surface area of 83.6 square centimeters (cm^2). When required to ensure good germination and healthy plants, a fungicide treatment and/or other chemical or physical treatment was applied. The plants were grown for 8-22 days in a greenhouse with an approximate 14 hour (h) photoperiod which was maintained at about 29° C. during the day and 26° C. during the night. Nutrients (Peters Excel® 15-5-15 5-Ca 2-Mg and iron chelate) were applied in the irrigation solution as needed and water was added on a regular basis. Supplemental lighting was provided with overhead metal halide 1000-Watt lamps as necessary. The plants were employed for testing when they reached the first through fourth true leaf stage.
Treatments consisted of the acid or esters of 4-amino-3-chloro-5-fluoro-6-(4-chloro-2-fluoro-3-methoxy-phenyl)pyridine-2-carboxylic acid (Compound A), each formulated as an SC (suspension concentrate), and various fungicidal components alone and in combination. Forms of compound A were applied on an acid equivalent basis.
Treatment requirements were calculated based upon the rates being tested, the concentration of active ingredient or acid equivalent in the formulation and a 12 milliliter (mL) application volume at a rate of 187 liters per hectare (L/ha).
For treatments comprised of formulated compounds, measured amounts of compounds were placed individually in 25 mL glass vials and diluted in a volume of 1.25% volume per volume (v/v) Agri-Dex® crop oil concentrate to obtain 12× stock solutions. […] Application solutions were prepared by adding an appropriate amount of each stock solution (e.g., 1 mL) and diluted to the appropriate final concentrations with the addition of […] of an aqueous mixture of 1.25% (v/v) crop oil concentrate so that the final spray solutions contained 1.25+/−0.05% (v/v) crop oil concentrate.
For treatments comprised of technical compounds, weighed amounts can be placed individually in 25 mL glass vials and dissolved in a volume of 97:3 volume per volume (v/v) acetone/dimethyl sulfoxide (DMSO) to obtain 12× stock solutions. […] When technical materials are used, the concentrated stock solutions can be added to the spray solutions so that the final acetone and DMSO concentrations of the application solutions are 16.2% and 0.5%, respectively.
As required, additional water and/or 97:3 v/v acetone/DMSO was added to individual application solutions so that the final acetone and DMSO concentrations of the application solutions being compared were 8.1% and 0.25%, respectively
All stock solutions and applications solutions were visually inspected for compound compatibility prior to application. Spray solutions were applied to the plant material with an overhead Mandel track sprayer equipped with 8002E nozzles calibrated to deliver 187 L/ha over an application area of 0.503 square meters (m^2) at a spray height of 18 to 20 inches (46 to 50 cm) above average plant canopy height. Control plants were sprayed in the same manner with the solvent blank.
The treated plants and control plants were placed in a greenhouse as described above and watered by sub-irrigation to prevent wash-off of the test compounds. After approximately 3 weeks, the condition of the test plants as compared with that of the untreated plants was determined visually and scored on a scale of 0 to 100 percent where 0 corresponds to no injury or growth inhibition and 100 corresponds to complete kill. […]

## COc1c(Cl)ccc(-c2nc(C(=O)OCc3ccccc3)c(Cl)c(N)c2F)c1F [Compound A Benzyl Ester]
20 DAA, r9-11 ester 8/16/32 g ae/ha alone, r12 isotianil 200 g ai/ha alone, r13-15 ester 8/16/32 + 200
  Visual Weed Control (%)—20 DAA BRAPP Obs: 85% and 90% and 60%
r29-30 ester 8/16 g ae/ha alone, r31-33 hexaconazole 25/50/100 g ai/ha alone, r34-39 ester 8/16 at each of 25, 50, 100
  Visual Weed Control (%)—21 DAA BRAPP Obs: 55% and 60%
r38-39 ester 8/16 g ae/ha alone, r40 isotianil 380 g ai/ha alone, r41-42 ester 8/16 + 380
  Visual Weed Control (%)—21 DAA BRAPP Obs: 55% and 60%
